Reference: PMC9774249, “A Novel Peptide with Antifungal Activity from Red Swamp Crayfish Procambarus clarkii” (Antibiotics, 2022)
Read-outs that look alike come from different tables or passages of the source. Where no end group is shown, it is not given here.

Tests used:
[1] = test system: C. albicans
[2] = test system: S. aureus ATCC 25923; assay type: cell-based, Staphylococcus aureus
Description: (§1) Natural extracts derived from hemocytes and hemolymph of P. clarkii were liophylized and then resuspended in ultrapure water to obtain a protein content of 22 µg/mL and 1400 µg/mL, respectively. MIC values of extracts were determined by a micro-method previously described based on serial dilution 1:2 of the extracts, using Mueller Hinton II medium and Sabouraud medium (for C. albicans), in 96-well microplates and starting from concentrations of 50% v/v to 1.5 % v/v in a final volume equal to 100 μL. Thus, 10 μL of microbial suspension (5 × 10^6 CFU/ mL) obtained from a bacterial culture grown at 37 °C for 24 h on Tryptic Soy Agar (TSA) in 5 mL of 0.9% NaCl, with a turbidity equivalent to a 0.5 McFarland standard was added to 96-well plates and incubated at 37 °C for 24 h. MICs of extracts were determined by a microplate reader (GloMax®-Multi Detection System, Promega Italia s.r.l, Milan, Italy) with the lowest concentration of the sample whose optical density (OD) at 570 nm was similar to negative control wells (broth without inoculum to control the sterility of medium). Moreover, a positive growth control (bacterial tested strain in the medium without extracts to compare the growth of cells with samples) and a sample control (extract solutions without inoculum to control the absorbance of the samples at different concentrations) were also added.
(§2) The same methods and media were used to determine the antimicrobial activity of synthetic peptides #3, #5, #7, and #14, and derivatives. They were dissolved in ultrapure water, or 1 mL ultrapure water with 40 μL NH4OH (28% v/v) in the case of peptide #14, to obtain a stock solution of 5 mg/mL. Working solutions of 250 μg/mL were prepared for each peptide in MHII or Sabouraud, and test solutions in a 96 wells plate were obtained by diluting in a series 1:2. Each assay was performed in triplicate.

[3] = test system: C. albicans ATCC 10231; assay: Cell membrane integrity, propidium iodide uptake; assay type: cell-based, Candida albicans; conditions: 25, 20 and 15 μg/mL (sub-MIC), 24 h
Description: The cell membrane integrity of C. albicans ATCC 10231 after exposure to peptide #14d was evaluated using the PI uptake assay, as described by Bezerra et al., with some modifications. C. albicans ATCC 10231 was incubated with the peptide #14d in the same conditions reported for inhibition of biofilm formation. Thus, 20 μL of propidium iodide (PI, Molecular probes^TM, Fisher Scientific, Erembodegem, Belgium) was added to each well and the plate was incubated in the dark for 30 min at 25 °C. Then, the plate was washed three times with 0.9% NaCl and observed with an Olympus FV1200 confocal microscope with TIRF (Total internal reflection fluorescence) integrated, using an excitation wavelength of 535 nm and emission wavelength of 617 nm.

[4] = test system: C. albicans ATCC 10231 biofilm; assay: Scanning electron microscopy of biofilm morphology; assay type: cell-based, Candida albicans; conditions: 25 μg/mL (sub-MIC), 24 h, versus control
Description: The morphological changes in C. albicans ATCC 10231 cells were assessed by scanning electron microscopy (SEM, Phenom ProX, PhenomWorld, Eindhoven, Netherlands), using the method described by Bezerra et al., with some modifications. Biofilms were fixed with a 4% formaldehyde solution in DPBS for 30 min at 37 °C. Then, the biofilms were washed three times with sodium phosphate buffer (pH = 7.4). Next, samples were dehydrated with increased ethanol concentrations (30%, 50%, 70%, and 100%) for 10 min at 24 °C. Lastly, the final dehydration was conducted with […] (HDMS) for 10 min, removing the solvent at the end of washing to allow the samples to air dry. The samples were analyzed by scanning electron microscopy (SEM, Phenom ProX, PhenomWorld).

[5] = test system: C. albicans ATCC 10231; assay type: cell-based, Candida albicans; conditions: ATCC 10231, 24 h
Description: Sub-MIC concentrations were tested for their ability to interfere with the growth as sessile community of S. aureus ATCC 25923, P. aeruginosa ATCC 15442, and C. albicans ATCC 10231, as previously described. Bacterial strains or the fungal strain were incubated in test tubes with TSB or Sabouraud (5 mL) containing 2% w/v glucose at 37 °C for 24 h. After that, small aliquots (2.5 μL) from the diluted microbial suspensions whose turbidity was equivalent to a 0.5 McFarland standard were added to each well of a polystyrene sterile flat-bottom 96-well plate filled with TSB or BS (200 μL) with 2% w/v glucose. Sub-MIC concentration values of amino acidic fraction from hemocytes and hemolymph of P. clarkii or of chemically synthesized peptides were directly added to the wells and the plates were incubated at 37 °C for 24 h. After biofilm growth, samples were washed twice with sterile 0.9% NaCl and stained with 200 μL of 0.1% w/v crystal violet solution for 15 min at 37 °C [58]. Excess solution was discarded, and the plate was washed twice using tap water. […] Last, the absorbance was determined at 600 nm using a microplate reader (GloMax®-Multi Detection System, Promega Italia s.r.l, Milan, Italy). […] The percentage of inhibition was calculated through the formula:% Inhibition = [(OD growth − OD sample)/OD growth control] × 100. […]

[6] = test system: P. aeruginosa ATCC 15442; assay type: cell-based, Pseudomonas aeruginosa
Description: as §1, §2

[7] = test system: E. faecalis ATCC 29212; assay type: cell-based, Enterococcus faecalis
Description: as §1, §2

[8] = test system: C. albicans ATCC 10231; assay type: cell-based, Candida albicans
Description: as §1, §2

[9] = test system: C. albicans ATCC 10231; assay: Overproduction of reactive oxygen species (DCFH-DA); assay type: cell-based, Candida albicans; conditions: 25 and 20 μg/mL
Description: The ROS overproduction in C. albicans ATCC 10231 due to peptide #14d was evaluated using the method described by Bezerra et al., with some modifications. C. albicans ATCC 10231 was incubated with peptide #14d in the same conditions reported for biofilm inhibition formation. Then, the formed biofilm was washed with 0.9% NaCl three times to remove the Sabouraud liquid medium. After this procedure, 20 μL of 2′,7′ dichlorofluorescein diacetate (DCFH-DA) was added to each well and the plate was incubated in the dark for 30 min at 25 °C. DCFH-DA is oxidized by ROS to dichlorofluorescein, which emits green fluorescence. Lastly, the biofilms were washed with 0.9% NaCl three times and observed with a fluorescence microscope with an excitation wavelength of 488 nm and emission wavelength of 525 nm.

[10] = test system: E. coli ATCC 25922; assay type: cell-based, Escherichia coli
Description: as §1, §2

[11] = test system: selected strains; assay: EC50 under low-salt conditions (viable count); assay type: cell-based; conditions: 10 mM sodium phosphate buffer, 100-0.15 μg/mL, 3 h 37 °C, CFU count, maximum tested 100 μg/mL
Description: The antimicrobial activity of the chemically synthesized peptides #3, #5, #7, and #14, and their derivatives, against selected strains were evaluated in terms of peptide half-maximal effective concentration to inhibit 50% of the viable bacteria (EC50), as reported by other authors. Briefly, 5 × 10^4 CFU per well of tested microorganisms were incubated with peptide concentrations from 100 to 0.15 μg/mL (1:2 serial dilutions) for 3 h at 37 °C in 100 μL of 10 mM sterile sodium phosphate buffer. After 3 h, 10 μL of each dilution was spotted in triplicate on Tryptic Soy Agar plates and incubated at 37 °C for 24 h. After the incubation time, the number of colonies from any sample were counted and compared with the CFU viable count of the none-treated growth control.

[12] = synthetic peptides, S. aureus ATCC 25923, maximum tested 250 μg/mL, 1:2 dilutions, MHII, 37 °C 24 h, triplicate
[13] = synthetic peptides, P. aeruginosa ATCC 15442, maximum tested 250 μg/mL, 1:2 dilutions, MHII, 37 °C 24 h, triplicate
[14] = synthetic peptides, E. faecalis ATCC 29212, maximum tested 250 μg/mL, 1:2 dilutions, MHII, 37 °C 24 h, triplicate
[15] = synthetic peptides, E. coli ATCC 25922, maximum tested 250 μg/mL, 1:2 dilutions, MHII, 37 °C 24 h, triplicate

Sequence | minimal fungicidal concentration (MFC) [1] [µg/mL] | MIC ([2]; ATCC 25923, 24 h) [µg/mL] | membrane integrity (PI uptake, red fluorescence) [3] | biofilm morphology by SEM [4] | BIC50 (biofilm inhibition concentration) [5] [µg/mL] | MIC ([6]; ATCC 15442, 24 h) [µg/mL] | MIC ([7]; ATCC 29212, 24 h) [µg/mL] | MIC ([8]; ATCC 10231, 24 h) [µg/mL] | ROS overproduction (DCFH-DA fluorescence) [9] | MIC ([10]; ATCC 25922, 24 h) [µg/mL] | EC50 (concentration to inhibit 50% of the viable bacteria) [11] [µg/mL] | MIC [2, 12] [µg/mL] | MIC [6, 13] [µg/mL] | MIC [7, 14] [µg/mL] | MIC [10, 15] [µg/mL] | MIC ([8]; synthetic peptides, C. albicans ATCC 10231, maximum tested 250 μg/mL, 1:2 dilutions, Sabouraud, 37 °C 24 h, triplicate) [µg/mL]
FHLVWRAGGTF [Peptide #14d] | 62.5 | > 250 | damaged the cell membrane and induced an increase in red fluorescence intensity | evident variations in the morphology, inducing wrinkles and scars | 23.2 | > 250 | > 250 | 31.2 | did not induce ROS overproduction | > 250 | – | – | – | – | – | –
FSLVNAVDQTT [Peptide #14] | – | > 250 | – | – | – | > 250 | > 250 | > 250 | – | > 250 | > 100 | – | – | – | – | –
IIIRKGRW [Peptide #3d] | – | > 250 | – | – | – | > 250 | > 250 | – | – | > 250 | – | – | – | – | – | –
NNWTGADCKAATLK [Peptide #5] | – | > 250 | – | – | – | > 250 | > 250 | > 250 | – | > 250 | > 100 | – | – | – | – | –
NWWTGARCKAATLK [Peptide #5d, synthetic derivative of natural peptide #5] | – | – | – | – | – | – | – | – | – | – | – | > 250 | > 250 | > 250 | > 250 | –
SSGYGGYGGGRF [Peptide #3] | – | – | – | – | – | – | – | – | – | – | > 100 | > 250 | > 250 | > 250 | > 250 | > 250
YGGYFGNR [Peptide #7] | – | > 250 | – | – | – | > 250 | > 250 | > 250 | – | > 250 | > 100 | – | – | – | – | –
